Assay results published in PMC11085308, “Design, Synthesis and Biological Activity of Novel Methoxy- and Hydroxy-Substituted N-Benzimidazole-Derived Carboxamides” (Molecules, 2024).
≈ marks a conversion by molar mass, not a printed value. Entries after “also recorded” stand apart in the source; their conditions may differ.

Tests used:
[1] = tested on: HEK 293 (human embryonic kidney); assay: Antiproliferative activity in vitro, MTT assay, 72 h, non-cancerous cell line; type: cell-based; settings: HEK293, 72 h incubation, '-' with footnote a = did not show biological activity due to precipitation
Experimental: (§1) The experiments were carried out on four human cell lines which are derived from three cancer types: H460 (lung carcinoma), HCT 116 (colorectal carcinoma), MCF-7 (human breast cancer) and the non-cancerous cell line HEK 293 (human embryonic kidney).
(§2) The results are compared with the known antiproliferative agents doxorubicin and etoposide. […] Therefore, it is not clear whether the observed antiproliferative activity is due to the biological activity of the compounds or to precipitation.
(§3) The experiments were performed on four human cell lines, including HCT 116 (colon carcinoma), H 460 (lung carcinoma), MCF-7 (breast carcinoma) and HEK 293 (human embryonic kidney cells), in line with previously published experimental procedures. Briefly, the cells were grown in DMEM medium with the addition of 10% fetal bovine serum (FBS), 2 mM of L-glutamine, 100 U/mL of penicillin and 100 µg/mL of streptomycin and cultured as monolayers at 37 °C in a humidified atmosphere with 5% CO2. Cells were seeded at 2 × 10^3 cells/well in standard 96-well microtiter plates and left to attach for 24 h. The next day, a test compound was added in five serial 10-fold dilutions. The rate of cell growth was evaluated after 72 h of incubation with MTT assays. […] Each test was performed in quadruplicate in at least two individual experiments.

[2] = tested on: HCT 116 (colorectal carcinoma); assay: Antiproliferative activity in vitro, MTT assay, 72 h; type: cell-based; settings: Homo sapiens, 72 h incubation, '-' with footnote a = did not show biological activity due to precipitation
Experimental: as §1, §2, §3

[3] = tested on: H460 (lung carcinoma); assay: as above; type: cell-based; settings: Homo sapiens, NCI-H460, 72 h incubation
Experimental: as §1, §2, §3

[4] = tested on: MCF-7 (human breast cancer); assay: as above; type: cell-based; settings: MCF7, 72 h incubation
Experimental: as §1, §2, §3

[5] = tested on: E. coli efflux del.; assay: microbe, parasite or virus in culture; type: cell-based, Escherichia coli; settings: broth microdilution, 16–24 h at 37 °C; unit inferred
Experimental: (§4) The in vitro antibacterial activity of the synthesized benzamides 7–12 and 31–37 was evaluated against a panel of eight different bacterial strains. The Gram-positive bacterial strains comprised S. aureus, S. pneumoniae and E. faecalis, and the panel of Gram-negative bacteria consisted of E. coli, K. pneumoniae, A. baumannii and P. aeruginosa.
(§5) The selected bacterial strains were Gram-negative Escherichia coli (ATCC 25922) and Gram-positive Staphylococcus aureus (ATCC 29213) and S. Pneumoniae (ATCC 49619). The Saccharomyces cerevisiae ATCC 7752 strain was tested as a eukaryotic model organism. Synthesized compounds were prepared as 10 mM DMSO solutions and tested in a final concentration range of 100–0.2 µM [39].
(§6) Broth microdilution testing was performed according to CLSI (Clinical Laboratory Standards Institute) guidelines. The MIC (minimal inhibitory concentration) value was defined as the last tested concentration of a compound at which there is no visible growth of bacteria. Inoculums for each microorganism were prepared using the direct colony suspension method, where broth solutions that achieved turbidity equivalent to 0.5 McFarland standards were additionally diluted 100× with cation-adjusted MH media (Becton Dickinson). All test plates were incubated for 16–24 h at 37 °C.

[6] = tested on: S. aureus ATCC 29213; assay: Antibacterial activity in vitro, broth microdilution MIC; type: cell-based, Staphylococcus aureus; settings: for MIC S. aureus ATCC 29213: broth microdilution, 16–24 h at 37 °C, unit inferred
Experimental: as §4, §5, §6

[7] = tested on: A. baumannii ATCC 17978; assay: as above; type: cell-based; settings: 16–24 h at 37 °C, unit inferred
Experimental: as §4, §5, §6

[8] = tested on: E. faecalis ATCC 29212; assay: as above; type: cell-based; settings: for MIC E. faecalis ATCC 29212: broth microdilution, 16–24 h at 37 °C, unit inferred
Experimental: as §4, §5, §6

[9] = tested on: P. aeruginosa ATCC 27853; assay: as above; type: cell-based; settings: 16–24 h at 37 °C, unit inferred
Experimental: as §4, §5, §6

[10] = tested on: E. coli ATCC 25922; assay: as above; type: cell-based, Escherichia coli; settings: 16–24 h at 37 °C, unit inferred
Experimental: as §4, §5, §6

[11] = Ferric reducing/antioxidant power (FRAP assay); set-up: FRAP: unit not given here; settings: for FRAP: Fe2+ equivalents, triplicate; for FRAP ferric reducing/antioxidant power, in words: compared to the standard BHT
Experimental: (§7) The synthesized benzazole acrylonitrile derivatives were screened for their antioxidative potency by using in vitro assays, namely DPPH and ABTS as free radical scavenging assays and FRAP as a ferric reducing/antioxidant power assay.
The antioxidant activity of a substance is directly related to its reducing power.
The FRAP method was carried out according to previously described procedures with some modifications to make it compatible with an assay on a 96-well microplate. All results were expressed as Fe^2+ equivalents (Fe^2+ µmol). Ferrous sulphate (FeSO4 × 7H2O) was used to develop a standard curve of 20–2000 µmol/l for the FRAP test.

[12] = DPPH free radical scavenging assay; settings: compared to the standard BHT
Text: as §7
The well-known antioxidant butylated hydroxytoluene (BHT) was used as a standard for comparing activity during testing. The DPPH assay is a standard commonly used test for the in vitro assessment of the antioxidant capacity of novel compounds by using their ability to scavenge the stable radical 1,1-diphenyl-picrylhydrazyl. […] Another test used to evaluate the antioxidative capacity of novel compounds was the ABTS test, by which their activity was evaluated by scavenging the stable radical 3-ethylbenzthiazoline-6-sulphonic acid.
Determination of the reducing activity of the stable radical 1,1-diphenyl-picrylhydrazyl (DPPH):
The reducing activity of the investigated systems was measured by the DPPH method according to previously described procedures with modifications to ensure their use on a 96-well microplate. Briefly, equal volumes of various concentrations of the tested molecules (dissolved in DMSO) were added to a solution of DPPH (final concentration of 50 µM in absolute ethanol). Ethanol and DMSO were used as control solutions in line with earlier reports. The radical scavenging activity was calculated using the following formula:[(A517 control − A517 compound)/A517 control] × 100.
The IC50 values were calculated from dose–response curves using nonlinear regression analysis with the GraphPad Prism 8 Ink. program. All measurements were carried out in triplicate.

COc1cccc2c1C(=O)c1c(O)c3c(c(O)c1C2=O)C[C@@](O)(C(=O)CO)C[C@@H]3O[C@H]1C[C@H](N)[C@H](O)[C@H](C)O1 [Doxorubicin, doxorubicin, reference compound]
IC50 [1]: 0.02 ± 0.01 µM
IC50 [2]: 0.04 ± 0.01 µM
IC50 [3]: 0.04 ± 0.01 µM
IC50 [4]: 0.009 ± 0.004 µM

NC[C@H]1O[C@H](O[C@H]2[C@H](O)[C@@H](O[C@H]3O[C@H](CO)[C@@H](O)[C@H](N)[C@H]3O)[C@H](N)C[C@@H]2N)[C@H](N)C[C@@H]1O [Tobramycin, reference compound]
MIC E. coli efflux del. [5]: 1 µM (≈ 0.468 µg/mL)
MIC S. aureus ATCC 29213 [6]: 0.25 µM (≈ 0.117 µg/mL)
MIC A. baumannii ATCC 17978 [7]: 2 µM (≈ 0.935 µg/mL)
MIC E. faecalis ATCC 29212 [8]: 8 µM (≈ 3.74 µg/mL)
MIC P. aeruginosa ATCC 27853 [9]: 0.5 µM (≈ 0.234 µg/mL)
MIC E. coli ATCC 25922 [10]: 1 µM (≈ 0.468 µg/mL)

C[C@@H](O)[C@H]1C(=O)N2C(C(=O)O)=C(S[C@@H]3CN[C@H](C(=O)N(C)C)C3)[C@H](C)[C@H]12 [Meropenem, meropenem, reference compound]
MIC E. coli efflux del. [5]: < 0.125 µM
MIC S. aureus ATCC 29213 [6]: < 0.125 µM
MIC A. baumannii ATCC 17978 [7]: 0.5 µM (≈ 0.192 µg/mL)
MIC E. faecalis ATCC 29212 [8]: 8 µM (≈ 3.07 µg/mL)
MIC P. aeruginosa ATCC 27853 [9]: 1 µM (≈ 0.383 µg/mL)
MIC E. coli ATCC 25922 [10]: < 0.125 µM

O=C(Nc1nc2ccccc2n1-c1ccccc1)c1cc(O)c(O)c(O)c1 [Compound 34, 3,4,5-Trihydroxy-N-(1-phenyl-1H-benzo[d]imidazol-2-yl)benzamide]
MIC E. coli efflux del. [5]: > 64 µM
MIC S. aureus ATCC 29213 [6]: > 64 µM
FRAP [11]: 6.83 ± 1.26
FRAP ferric reducing/antioxidant power, in words [11]: very low
IC50 [1]: 85.1 ± 8.8 µM
MIC A. baumannii ATCC 17978 [7]: > 64 µM
Selectivity of antibacterial activity, in words ([8]; against the Gram-positive strain E. faecalis): selective antibacterial activity
MIC E. faecalis ATCC 29212 [8]: 32 µM (≈ 11.6 µg/mL)
MIC P. aeruginosa ATCC 27853 [9]: > 64 µM
MIC E. coli ATCC 25922 [10]: > 64 µM
DPPH free radical scavenging activity, in words [12]: significantly improved; also recorded: exceptional activity
melting point: 278 to 281 °C
IC50 [2]: > 100 µM
IC50 [3]: > 100 µM
IC50 [4]: 49.4 ± 27.3 µM

O=C(O)c1cn(C2CC2)c2cc(N3CCNCC3)c(F)cc2c1=O [Ciprofloxacin, ciprofloxacin, reference compound]
MIC S. aureus ATCC 29213 [6]: 0.25 µM (≈ 0.0828 µg/mL)
MIC E. faecalis ATCC 29212 [8]: 4 µM (≈ 1.33 µg/mL)

CC(C)Cn1c(NC(=O)c2cc(O)c(O)c(O)c2)nc2ccccc21 [Compound 33, 3,4,5-Trihydroxy-N-(1-isobutyl-1H-benzo[d]imidazol-2-yl)benzamide]
MIC E. coli efflux del. [5]: 64 µM (≈ 21.8 µg/mL)
MIC ([6]; Staphylococcus aureus, ATCC29213, read-out: MIC S. aureus): 32 µM (≈ 10.9 µg/mL)
MIC S. aureus ATCC 29213 [6]: 32 µM (≈ 10.9 µg/mL)
FRAP [11]: 4154.35 ± 1.26
FRAP ferric reducing/antioxidant power, in words [11]: excellent in vitro antioxidant activity
IC50 [1]: 77.1 ± 7.9 µM
MIC A. baumannii ATCC 17978 [7]: > 64 µM
MIC E. faecalis ATCC 29212 [8]: 64 µM (≈ 21.8 µg/mL)
MIC P. aeruginosa ATCC 27853 [9]: > 64 µM
MIC E. coli ATCC 25922 [10]: > 64 µM
DPPH free radical scavenging activity, in words [12]: significantly improved
melting point: 291 to 293 °C
IC50 [2]: 43.2 ± 18.6 µM
IC50 [3]: > 100 µM
IC50 [4]: 90.8 ± 1.6 µM
